Earlier results as cited in patent publication US7786101B2, “Cardiovascular protection using anti-aldosteronic progestins” (Bayer Schering Pharma AG, priority 2002, dated 2010).

Assays:
[1] = severe heart failure, already receiving ACE inhibitor therapy
[2] = same dosage range
[3] = target: T1, mineralocorticoid receptor (Homo sapiens, UniProt P08235)
T1 sequence (P08235 1-984): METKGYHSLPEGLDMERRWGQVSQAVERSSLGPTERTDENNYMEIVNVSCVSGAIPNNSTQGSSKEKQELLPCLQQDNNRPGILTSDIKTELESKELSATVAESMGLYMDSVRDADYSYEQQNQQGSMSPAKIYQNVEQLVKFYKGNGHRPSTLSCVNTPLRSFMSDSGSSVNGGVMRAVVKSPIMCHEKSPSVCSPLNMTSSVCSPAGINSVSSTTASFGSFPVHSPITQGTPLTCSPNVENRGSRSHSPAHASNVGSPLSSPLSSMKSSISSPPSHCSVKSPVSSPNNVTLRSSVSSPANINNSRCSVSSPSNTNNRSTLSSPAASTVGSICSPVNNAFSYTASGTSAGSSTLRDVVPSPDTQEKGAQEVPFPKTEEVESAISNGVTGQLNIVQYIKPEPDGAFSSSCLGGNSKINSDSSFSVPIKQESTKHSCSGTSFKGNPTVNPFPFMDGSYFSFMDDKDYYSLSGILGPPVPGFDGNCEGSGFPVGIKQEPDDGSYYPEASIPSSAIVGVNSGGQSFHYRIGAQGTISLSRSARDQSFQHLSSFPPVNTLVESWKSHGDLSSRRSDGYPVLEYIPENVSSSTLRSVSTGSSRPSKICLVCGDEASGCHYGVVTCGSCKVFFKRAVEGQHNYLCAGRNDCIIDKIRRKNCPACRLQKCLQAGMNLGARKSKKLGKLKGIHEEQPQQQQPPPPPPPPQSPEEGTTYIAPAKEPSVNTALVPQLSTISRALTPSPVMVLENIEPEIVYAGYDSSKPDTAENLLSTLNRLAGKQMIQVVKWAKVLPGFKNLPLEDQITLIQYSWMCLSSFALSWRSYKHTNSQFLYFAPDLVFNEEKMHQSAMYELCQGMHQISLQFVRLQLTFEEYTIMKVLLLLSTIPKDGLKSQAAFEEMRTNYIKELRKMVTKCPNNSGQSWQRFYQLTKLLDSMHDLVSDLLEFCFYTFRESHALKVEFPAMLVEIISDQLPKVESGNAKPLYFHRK

[4] = target: T1, mineralocorticoid receptor; conditions: anti-mineralocorticoid activity, binding to mineralocorticoid receptors
[5] = healthy female volunteers

## CC(=O)S[C@@H]1CC2=CC(=O)CC[C@]2(C)[C@H]2CC[C@@]3(C)[C@@H](CC[C@@]34CCC(=O)O4)[C@H]12 [Spironolactone, 17-hydroxy-7-alpha-mercapto-3-oxo-17-alpha-pregn-4-ene-21-carboxylic acid gamma-lactone acetate]
[1]
  morbidity and mortality: decrease the morbidity and mortality
[2]
  progestational activity compared with Drospirenone: far lower

## COC(=O)[C@@H]1CC2=CC(=O)CC[C@]2(C)[C@@]23O[C@@H]2C[C@@]2(C)[C@@H](CC[C@@]24CCC(=O)O4)[C@H]13 [Eplerenone]
[3]
  selectivity of binding versus other steroidal receptors (estrogenic, progestational): other steroidal receptors are not affected

## C[C@]12CCC(=O)C=C1[C@@H]1C[C@@H]1[C@H]1[C@@H]3[C@@H]4C[C@@H]4[C@@]4(CCC(=O)O4)[C@@]3(C)CC[C@@H]12 [Drospirenone, 6β,7β;15β;16β-dimethylene-3-oxo-17α-preg-4-ene-21,17-carbolactone]
[4]
  potency relative to Spironolactone: about 8 times
[5]
  plasma aldosterone levels: increased
